Experiment [1] deals with oxotremorine-induced body tremor in mice. Kind of experiment: Oxotremorine antagonist assay (body tremor) in mice. It counts as in vivo. To be noted: Mus musculus, ip, read-out: Oxot. Antagonist Tremor (ED50). How it is done: Oxotremorine antagonist assays were performed on groups of six mice weighing 18-22 g. Each was dosed intraperitoneally with the test compound prepared in 0.25% methylcellulose and were placed in individual cages. Twenty minutes later the mice were injected subcutaneously with 0.5 mg/kg of oxotremorine dissolved in saline. Ten minutes later the mice were scored for body tremor. Doses of the compound under study began at 100 mg/kg and were decreased at a 0.5 log interval until no responders were obtained.

Experiment [2] relates to HCl-induced writhing in CF1 mice. Kind of experiment: Analgesic activity, HCl writhing protection in mice. It counts as in vivo. Particulars: Mus musculus, sc, 0.25 h, read-out: CNS Id (ED50 mg/kg) HCl Writh. Protect. The protocol: For determination of analgesic activity, the test compound was injected subcutaneously into a group of four CF1 mice. Thirty minutes later the mice were injected i.p. with 0.15% HCl, 10 ml./kg. Mice are then placed in plastic boxes and observed for fifteen minutes to record the number of animals failing to writhe.
A general note: An intraperitoneal irritant provokes the stretching counted in writhing tests.

Experiment [3] concerns the target CNS cholinergic receptor. Kind of experiment: Cholinergic receptor binding assay, tritiated oxotremorine M ligand. To be noted: read-out: CNS Cholinergic Receptor Binding Assays Ki (nM) Oxotremorine.
Experiment [4] deals with CNS cholinergic receptor. It counts as binding. Particulars: for Ki ratio (Ki QNB/Ki oxotremorine M): QNB vs oxotremorine M binding; for cholinergic agonist / antagonist / partial agonist classification by Ki ratio: from Ki QNB/Ki oxotremorine M ratio; for Ki: tritiated quinuclidine benzylate, read-out: CNS Cholinergic Receptor Binding Assays Ki (nM) QNB.
Where [5] appears, read: i.p. test compound, 20 min before oxotremorine 0.5 mg/kg s.c., mice.
Where [6] appears, read: s.c. test compound, 30 min before 0.15% HCl i.p., CF1 mice.

SMILES strings stand for the structures. Where “and” joins values, the source holds several entries; their conditions need not be identical. Identical values can stand only once. Like-named read-outs stand apart in the source and are kept apart here.

For the compound `CC(=O)N(C)C(C)C#CCN1CCCC1` (stereo not shown) [BM-5, reference compound], the ED50 in experiment [1] (setting [5]) amounted to 3.7 mg/kg; in experiment [2] (setting [6]), 4.4 mg/kg.
A word on the Ki: it is a dissociation constant, usually derived from enzyme kinetics or from competition with a known ligand. As for `O=C1CCCN1CC#CCn1ccnc1` [Compound 1, 1-[4-(1H-Imidazol-1-yl)-2-butynyl]-2-pyrrolidinone], in experiment [1], the ED50 is over 100 mg/kg. In addition, the Ki in experiment [3] was found to be 1.3 nM. Moreover, in experiment [4], the “Ki ratio (Ki QNB/Ki oxotremorine M)” value is over 100, the “cholinergic agonist / antagonist / partial agonist classification by Ki ratio” value was “cholinergic agonists” and the Ki was determined as 600 nM. Also, in experiment [2] (setting [6]), the ED50 stood at 0.4 mg/kg.
For the compound `Cc1nccn1CC#CCN1CCCC1=O` [Compound 2, 1-[4-(2-Methyl-1H-imidazol-1-yl)-2-butynyl]-2-pyrrolidinone], the ED50 in experiment [1] (setting [5]) is over 100 mg/kg. The Ki in experiment [3] was 0.3 nM. In experiment [4], the “Ki ratio (Ki QNB/Ki oxotremorine M)” value was under 10, the “cholinergic agonist / antagonist / partial agonist classification by Ki ratio” value is reported as “cholinergic antagonists” and the Ki was 3.8 nM. Also, the ED50 in experiment [2] (setting [6]) was 0.1 mg/kg.
For `Cc1cncn1CC#CCN1CCCC1=O` [Compound 3, 1-[4-(5-Methyl-1H-imidazol-1-yl)-2-butynyl]-2-pyrrolidinone], the Ki in experiment [3] is 3.2 nM and 3.3 nM. In experiment [4], the “Ki ratio (Ki QNB/Ki oxotremorine M)” value is “intermediate Ki ratios”; the “cholinergic agonist / antagonist / partial agonist classification by Ki ratio” value was “cholinergic partial agonists”; the Ki is 64 nM and 79.8 nM. In addition, the ED50 in experiment [2] (setting [6]) worked out at 2.6 mg/kg.
Regarding `Cc1cn(CC#CCN2CCCC2=O)c(C)n1` [Compound 4, 1-[4-(2,4-Dimethyl-1H-imidazol-1-yl)-2-butynyl]-2-pyrrolidinone], the figures for the ED50 in experiment [1] (setting [5]) and in experiment [2] were 54 mg/kg and over 50 mg/kg, respectively. For the same compound, the Ki in experiment [3] is 68 nM; in experiment [4] it was 160 nM.
As for `CC1CCC(=O)N1CC#CCn1ccnc1` (stereo not shown) [Compound 5, 1-[4-(1H-Imidazol-1-yl)-2-butynyl]-5-methyl-2-pyrrolidinone], the ED50 in experiment [1] (setting [5]) was 20.9 mg/kg; in experiment [2] (setting [6]), over 50 mg/kg. Besides, the inhibition constant (Ki) was found to be 23 nM in experiment [3] and 171 nM in experiment [4].
The like results for `CC(C#CCn1ccnc1)N1CCCC1=O` (stereo not shown) [Compound 6, 1-[4-(1H-Imidazol-1-yl)-1-methyl-2-butynyl]-2-pyrrolidinone] were, in that order, 45 mg/kg, over 50 mg/kg, 33.5 nM and 566 nM.
The like results for `CCc1nccn1CC#CCN1CCCC1=O` [Compound 7, 1-[4-(2-Ethyl-1H-imidazol-1yl)-2-butynyl]-2-pyrrolidinone] were, in that order, 9.7 mg/kg, over 50 mg/kg, 29.1 nM and 56.9 nM.
With `O=C1CCCN1CC#CCn1ccnc1Cl` [Compound 8, 1-[4-(2-Chloro-1H-imidazol-1-yl)-2-butynyl]-2-pyrrolidinone], in experiment [1] (setting [5]), the ED50 was over 100 mg/kg. Moreover, the Ki in experiment [3] came to 577 nM.
Regarding `Cc1cn(CC#CCN2CCCC2=O)cn1` [Compound 9, 1-[4-(4-Methyl-1H-imidazol-1-yl)-2-butynyl]-2-pyrrolidinone], the ED50 in experiment [1] (setting [5]) is over 100 mg/kg. Moreover, the Ki in experiment [3] was determined as 10.3 nM; in experiment [4] it was 377 nM.
As for `O=C1CCC(=O)N1CC#CCn1ccnc1` [Compound 10, 1-[4-(1H-Imidazol-1-yl)-2-butynyl]-2,5-pyrrolidinedione], the ED50 in experiment [1] is 25 mg/kg. Besides, the inhibition constant (Ki) in experiment [3] was found to be 23.5 nM; in experiment [4] it was 634 nM.
Taken in the same sequence, the figures for `Cc1cncn1CC#CCN1C(=O)CCC1=O` [Compound 11, 1-[4-(5-Methyl-1H-imidazol-1-yl)-2-butynyl]-2,5-pyrrolidinedione] were 37 mg/kg, 10.3 nM and 100 nM.
Turning to `Br.Cc1cncn1CC#CC(C)N1CCCC1=O` (stereo not shown) [Compound 12, 1-[4-(5-Methyl-1H-imidazol-1-yl)-1-methyl-2-butynyl]-2-pyrrolidinone hydrobromide], the ED50 in experiment [1] (setting [5]) is 25 mg/kg. The Ki in experiment [3] is 5.2 nM; in experiment [4], 16.8 nM.
Taken in the same sequence, the figures for `Cc1cncn1CC#CCN1C(=O)CCC1C` (stereo not shown) [Compound 13] were 14 mg/kg, 1.7 nM and 11.6 nM.
For `CC(=O)N(C)C(C)C#CCn1ccnc1` (stereo not shown) [Compound 14, N-[4-(1H-Imidazol-1-yl)-1-methyl-2-butynyl]-N-methylacetamide], the ED50 in experiment [1] (setting [5]) is over 100 mg/kg; in experiment [2] (setting [6]), 0.9 mg/kg. Besides, the inhibition constant Ki in experiment [3] was 12 nM; in experiment [4] it was 1500 nM.
The like results for `CC(=O)N(C)C(C)C#CCn1cnc(C)c1C` (stereo not shown) [Compound 16, N-[4-(4,5-Dimethyl-1H-imidazol-1-yl)-1-methyl-2-butynyl]-N-methylacetamide] were, in that order, 25.4 mg/kg, over 50 mg/kg, 42 nM and 79 nM.
Regarding `CC(=O)N(C)C(C)C#CCn1cc(C)nc1C` (stereo not shown) [Compound 17, N-[4-(2,4-Dimethyl-1H-imidazol-1-yl)-1-methyl-2-butynyl]-N-methylacetamide], the ED50 in experiment [1] (setting [5]) was 80 mg/kg; in experiment [2] (setting [6]), over 50 mg/kg. The Ki came out at 130 nM in experiment [3] and 180 nM in experiment [4].
For `CC(=O)N(C)C(C)C#CCn1c(C)cnc1C` (stereo not shown) [Compound 18, N-[4-(2,5-Dimethyl-1H-imidazol-1-yl)-1-methyl-2butynyl]-N-methylacetamide], the ED50 in experiment [1] (setting [5]) stood at 14.2 mg/kg. Moreover, the figures for the inhibition constant Ki in experiment [3] and in experiment [4] were 6.3 nM and 8.5 nM, respectively.
For the compound `CC(=O)N(C)CC#CCn1ccnc1` [Compound 19, N-[4-(1H-Imidazol-1-yl)-2-butynyl]-N-methylacetamide], the ED50 in experiment [1] (setting [5]) is over 100 mg/kg. Besides, the inhibition constant (Ki) in experiment [3] came out at 1.9 nM.
For `CC(=O)N(C)CC#CCn1cncc1C` [Compound 20, N-[4-(5-Methyl-1H-imidazol-1-yl)-2-butynyl]-N-methylacetamide], in experiment [1] (setting [5]), the ED50 was over 100 mg/kg. For the same compound, the Ki in experiment [3] came out at 3.6 nM; in experiment [4], 172 nM.
The like results for `CC(=O)N(C)C(C)C#CCn1cncc1C` (stereo not shown) [Compound 21, N-[4(5-Methyl-1H-imidazol-1-yl)-1-methyl-2-butynyl]-N-methylacetamide] were, in that order, 80 mg/kg, 10 nM and 184 nM.
On to `CC(=O)NCC#CCn1ccnc1` [Compound 22, N-[4-(1H-Imidazol-1-yl)-2-butynyl]acetamide], for which the ED50 in experiment [1] (setting [5]) was over 100 mg/kg. Besides, the Ki in experiment [3] amounted to 187 nM.
The like results for `CC(=O)NCC#CCn1cncc1C` [Compound 23, N-[4-(5-Methyl-1H-imidazol-1-yl)-2-butynyl]acetamide] were, in that order, over 100 mg/kg and 213 nM.
The like results for `Cc1cncn1CC#CCN(C)C(=O)N(C)C` [Compound 25, [4-(5-Methyl-1H-imidazol-1-yl)-2-butynyl]trimethyl urea] were, in that order, over 100 mg/kg and 82.1 nM.
The like results for `COC(=O)N(C)CC#CCn1ccnc1` [Compound 26, Methyl [4-(1H-imidazol-1-yl)-2-butynyl]methylcarbamate] were, in that order, over 100 mg/kg and 120 nM.
Turning to `COC(=O)N(C)CC#CCn1cncc1C` [Compound 27, Methyl [4-(5-methyl-1H-imidazol-1-yl)-2-butynyl]methyl carbamate], the ED50 in experiment [1] (setting [5]) is over 100 mg/kg. Moreover, the Ki in experiment [3] was 200 nM.
For the compound `C(#CCn1ccnc1)CN1CCCC1` [Compound 28, 1-[4-(Pyrrolidinyl)-2-butynyl]-1H-imidazole], the ED50 in experiment [1] is over 100 mg/kg; in experiment [2] it was 3.1 mg/kg.
Regarding `CN(C)CC#CCn1ccnc1` [Compound 29, 4-(1H-Imidazol-1-yl)-N,N-dimethyl-2-butyn-1-amine], the ED50 is over 100 mg/kg in experiment [1] and over 50 mg/kg in experiment [2]. Also, the Ki in experiment [3] was 10000 nM.
As to `Cc1nccn1CC#CCN1CCCC1` [Compound 30, 2-Methyl-1-[4-(pyrrolidinyl)-2-butynyl]-1H-imidazole], the ED50 is over 100 mg/kg in experiment [1] and 5 mg/kg in experiment [2].
Take `CCN(CC)CC#CCn1ccnc1` [Compound 31, N,N-Diethyl-4-(1H-Imidazol-1-yl)-2-butyn-1-amine]: the ED50 in experiment [1] was over 100 mg/kg; in experiment [2], over 50 mg/kg. Also, the inhibition constant (Ki) in experiment [3] was determined as 10000 nM.
In the case of `Cc1cncn1CC#CCN1CCCC1` [Compound 32, 5-Methyl-1[(4-pyrrolidinyl)-2-butynyl]-1H-imidazole], the ED50 in experiment [1] is over 100 mg/kg. The Ki in experiment [3] was 436 nM.
In the case of `C(#CCN1CCCC1)CN1CCCC1` [Tremorine, reference compound], the ED50 in experiment [1] was over 100 mg/kg. Besides, the results for the Ki in experiment [3] and in experiment [4] were 370 nM and 4600 nM, respectively.

Source of the values: patent US5100909A, “Acetylenic imidazoles having central nervous system activity” (The Upjohn Company, priority 1991, dated 1992).
